Structures can show the parent of a compound that is named as a salt.
What was measured:
[1] = Acute toxicity in mice (sub-cutaneous, lethality within 6 hours); conditions: mouse, in vivo, sc; for selectivity ratio: LD50 divided by ED50 (acetylcholine esterase ex vivo), read-out: Therapeutic Ratio (LD/AC); for LD50 at 6 h: sub-cutaneous, mice, within 6 hours
Procedure: Drugs were administered sub-cutaneously in at least 3 doses, to a minimum of 10 mice per dose. […] Therapeutic Ratio was calculated as LD50 divided by ED50(acetylcholine esterase ex vivo).

MAO-B [2] = experiment: Inhibition of MAO activity ex vivo (brain tissue), PEA substrate; type: in vivo, mice; conditions: mouse brain tissue
Procedure: (§1) Male Sabra mice, weighing 45-50g were injected with test compound solutions (prepared in 0.9% saline). Each dose was administered to two or three mice. The mice were sacrificed two hours after drug administration or at a time corresponding to the peak AChE inhibition time (see Table 6). The brain and liver were rapidly dissected and stored in appropriate vials on ice. The tissues were weighed, diluted to 1/20 in sucrose 0.3M and stored at -20°C before performance of the MAO assay described above. The results given in Table 6 relate to measurements made on brain tissue only.

MAO-A [3] = experiment: Inhibition of MAO activity ex vivo (brain tissue), 5-HT substrate; type: in vivo, mice; conditions: mouse brain tissue
Procedure: as §1

MAO-B [4] = target: T1, MAO-B (Rattus norvegicus, UniProt P19643); experiment: Inhibition of MAO activity in vitro, rat brain homogenate, PEA substrate; type: biochemical; parameters: The MAO enzyme source was a homogenate of rat brain in 0.3M sucrose; from tissue; host or cells: rat brain homogenate (600G supernatant); conditions: PEA 50µM
T1 sequence (P19643 1-520): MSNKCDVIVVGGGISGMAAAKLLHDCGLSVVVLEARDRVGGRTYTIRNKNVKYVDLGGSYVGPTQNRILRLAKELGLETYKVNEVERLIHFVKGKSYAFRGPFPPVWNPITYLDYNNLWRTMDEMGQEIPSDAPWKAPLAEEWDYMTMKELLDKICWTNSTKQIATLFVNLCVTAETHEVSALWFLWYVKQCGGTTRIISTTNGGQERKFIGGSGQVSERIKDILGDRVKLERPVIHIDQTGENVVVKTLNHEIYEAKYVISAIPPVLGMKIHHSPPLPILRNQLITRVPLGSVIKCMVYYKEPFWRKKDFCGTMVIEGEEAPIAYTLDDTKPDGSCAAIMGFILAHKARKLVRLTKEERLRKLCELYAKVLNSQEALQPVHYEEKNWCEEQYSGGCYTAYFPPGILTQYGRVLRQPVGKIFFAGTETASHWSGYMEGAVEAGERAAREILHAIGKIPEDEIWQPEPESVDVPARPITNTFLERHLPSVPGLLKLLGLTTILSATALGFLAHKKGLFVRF
Procedure: The MAO enzyme source was a homogenate of rat brain in 0.3M sucrose, which was centrifuged at 600G for 15 minutes. The supernatant was diluted appropriately in 0.05M phosphate buffer, and pre-incubated with serial dilutions of test compounds for 20 minutes at 37°C. ^14C-Labeled substrates (2-phenylethylamine, hereinafter PEA; 5-hydroxytryptamine, hereinafter 5-HT) were then added, and the incubation continued for a further 20 minutes (PEA), or 30-45 minutes (5-HT). Substrate concentrations used were 50µM (PEA) and 1mM (5-HT). In the case of PEA, enzyme concentration was chosen so that not more than 10% of the substrate was metabolized during the course of the reaction. The deaminated products were extracted into toluene-ethyl acetate (1:1, v/v) containing 0.6% (w/v) 2,5-diphenyloxazole prior to determination by liquid scintillation counting. Radioactivity in the eluate indicates the production of neutral and acidic metabolites formed as a result of MAO activity. Activity of MAO in the sample was expressed as a percentage of control activity in the absence of inhibitors after subtraction of appropriate blank values The activity determined using PEA as substrate is referred to as MAO-B, and that determined using 5-HT as MAO-A.

mice = experiment: Closed head injury in mice: reference memory, Morris water maze; type: in vivo; conditions: Morris water maze after CHI, compared to saline treated controls (Figure 1)
Procedure: Morris Water Maze Teat: the water maze consists of a circular aluminium pool, 1m in diameter and 60cm in depth, filled with water to a depth of 17.5cm. The hidden goal platform is a glass vessel (15cm diameter x 16. 5cm height) placed upside down at a fixed location in the pool, 1cm below the surface of the water. The water temperature is maintained at 24°C and the pool is always placed in the same position in the room to provide the same extra-maze cues. Prior to CHI (as described in Example 3 above), mice were given 3 trials per day for 5 consecutive days to establish a baseline performance - measured as the latency to find the platform from the same start location. Commencing 24hr after CHI, mice were retested daily for 2 weeks in 3 trials per day.
It appears that immediately post-CHI mice forget the location of the goal.

MAO-A [5] = target: T2, MAO-A (Rattus norvegicus, UniProt P21396); experiment: Inhibition of MAO activity following sub-acute (14 days) administration to rats, MAO-A; type: in vivo; parameters: from tissue; host or cells: brain, liver and intestine of Sprague Dawley rats; conditions: 20mg/kg daily for 14 days
T2 sequence (P21396 1-526): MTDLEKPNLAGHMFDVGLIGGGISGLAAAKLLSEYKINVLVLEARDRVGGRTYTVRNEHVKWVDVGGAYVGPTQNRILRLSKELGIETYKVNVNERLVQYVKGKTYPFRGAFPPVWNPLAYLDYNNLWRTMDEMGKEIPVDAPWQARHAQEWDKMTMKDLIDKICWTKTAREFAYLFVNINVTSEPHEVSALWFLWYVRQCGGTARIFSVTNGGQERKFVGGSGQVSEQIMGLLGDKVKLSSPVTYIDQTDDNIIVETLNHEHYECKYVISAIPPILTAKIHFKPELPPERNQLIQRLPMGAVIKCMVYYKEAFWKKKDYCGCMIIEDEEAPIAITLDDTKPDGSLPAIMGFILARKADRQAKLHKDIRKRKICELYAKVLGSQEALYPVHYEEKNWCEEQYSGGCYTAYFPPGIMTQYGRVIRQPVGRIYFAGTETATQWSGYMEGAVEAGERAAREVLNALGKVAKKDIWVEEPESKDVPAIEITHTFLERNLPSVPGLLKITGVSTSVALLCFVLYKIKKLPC
Procedure: as §1
(§2) Experiments were done with Spague Dawley male rats. Procedures were repeated as described in Examples 2.1 and 2.2, but drug administration was continued daily for 14 days. At the end of this period animals were sacrificed and MAO levels determined in the brain, liver and intestines. Compound 17 was administered sub-cutaneously or per os at a dose of 20mg/kg.

MAO-B [6] = target: T1, MAO-B; experiment: Inhibition of MAO activity following sub-acute (14 days) administration to rats, MAO-B; type: in vivo; parameters: from tissue; host or cells: brain, liver and intestine of Sprague Dawley rats; conditions: 20mg/kg daily for 14 days
Procedure: as §1, §2

SMILES	selectivity ratio [1]	LD50 at 6 h [1]	MAO-B Inhibition Ex vivo ED50 (MAO-B [2])	MAO-A Inhibition Ex vivo ED50 (MAO-A [3])	IC50 (MAO-B [4])	latency to find the platform (mice)	inhibition at 20 mg/kg (MAO-A [5]; po, Brain)	inhibition at 20 mg/kg (MAO-A [5]; po, Intestine)	inhibition at 20 mg/kg (MAO-A [5]; po, Liver)	inhibition at 20 mg/kg (MAO-A [5]; sc, Brain)	inhibition at 20 mg/kg (MAO-A [5]; sc, Intestine)	inhibition at 20 mg/kg (MAO-A [5]; sc, Liver)	inhibition at 20 mg/kg (MAO-B [6]; po, Brain)	inhibition at 20 mg/kg (MAO-B [6]; po, Intestine)	inhibition at 20 mg/kg (MAO-B [6]; po, Liver)	inhibition at 20 mg/kg (MAO-B [6]; sc, Brain)	inhibition at 20 mg/kg (MAO-B [6]; sc, Intestine)	inhibition at 20 mg/kg (MAO-B [6]; sc, Liver)
C#CCNCCc1cccc(OC(=O)N(C)C)c1 [Compound 11]	13.8	44.2 µmol/kg	>>30 µmoles/kg	40 µmol/kg	25 µM	–	–	–	–	–	–	–	–	–	–	–	–	–
C#CCNC(C)Cc1cccc(OC(=O)N(C)C)c1 (stereo not drawn) [Compound 16]	18.3	42 µmol/kg	>20 µmol/kg	>20 µmol/kg	6 µM	–	–	–	–	–	–	–	–	–	–	–	–	–
C#CCNC(C)Cc1cccc(OC(=O)N(C)CC)c1 (stereo not drawn) [Compound 17, 3-(N-Me,N-Etcarbamyloxy)α-methyl, N-propargyl phenethylamine.HCl]	9.4	600 µmol/kg	40 µmol/kg	>40 µmol/kg	2 µM	reduction in latency	59%	25%	59%	76%	10%	33%	72%	40%	74%	87%	33%	51%
C#CCN(C)CCc1cccc(OC(=O)N(C)C)c1 [Compound 12]	11.5	46 µmol/kg	21 µmol/kg	4 µmol/kg	2.5 µM	–	–	–	–	–	–	–	–	–	–	–	–	–

From patent EP0951284B1, “[…] DERIVATIVES” (priority 1996, dated 1998)
